According to patent publication US4137420A, “Cysteine derivatives” (Santen Pharmaceutical Co., Ltd., priority 1976, dated 1979):

Columns and labels:
[1] = In vitro determination of the reduction in viscosity of egg white; settings: 20 minutes at 37° C, mean ± S.E. of 3 to 5 experiments
Method: Mucolytic activity is evaluated by determining the reduction in viscosity of egg white or mucin in vitro. L-Cysteine ethyl ester hydrochloride, L-cysteine methyl ester hydrochloride and acetyl-L-cysteine are used as test compounds for comparison. (1) In vitro determination of the reduction in viscosity of egg white Egg white, which is pooled in sufficient quantity to supply material for all the determinations, is gently blended in a mixer for 5 minutes. 9ml portions of this material are put into a 50-ml beaker and the test solution in a volume of 1ml containing various concentrations of test compound (test compound is dissolved in distilled water and the solution is adjusted to pH 8.0 with 1 N sodium hydroxide, while distilled water is used as a control) is added. The mixture is then shaken for 20 minutes at 37° C. Viscosity of the resulting solution is determined by an Ostwald viscosimeter. Results shown in Table 1 are percent reduction in relative viscosity at various concentrations of the test compound used.

mucin = test: In vitro determination of the reduction in viscosity of mucin; settings: 10 mM; 1% mucin, pH 8.0, 1 hour at 37° C; mean ± S.E. of 3 to 5 experiments
Method: Mucolytic activity is evaluated by determining the reduction in viscosity of egg white or mucin in vitro. L-Cysteine ethyl ester hydrochloride, L-cysteine methyl ester hydrochloride and acetyl-L-cysteine are used as test compounds for comparison.
(2) In vitro determination of the reduction in viscosity of mucin
According to the method presented by Sheffner et al. (Ann, N.Y. Acad. Sci., Vol. 106, P 298-310, 1963), bacteriological mucin (Nakarai Chemical Co., Ltd.) is dissolved in Sorensen's phosphate buffer (pH =8.0) and a 1% mucin solution is prepared. 0.9ml portions of the solution are put into test tubes and test compounds (prepared in the same manner as in (1) previously described, except that the buffer solution is used for control) are added to them in a concentration 10mM. The mixture is then shaken for 1 hour at 37° C. The viscosity of the resulting solution is determined by Ostwald viscosimeter. Results shown in Table 1 are percent reduction in relative viscosity at 10mM of the test compounds used.

[2] = Changes in the mucolytic activity of the test compounds treated with rabbit serum (viscosity of egg white); settings: for Reduction in the mucolytic activity (%): 1.0 mM, rabbit serum treated vs untreated; for Percent reduction in relative viscosity of egg white, treated with rabbit serum / Percent reduction in relative viscosity of egg white, untreated with rabbit serum: final concentration 1.0 mM, mean ± S.E. of 3 to 5 experiments; for Percent reduction in relative viscosity of egg white, treated with rabbit serum: after 30 minutes at 37° C with rabbit serum; for Percent reduction in relative viscosity of egg white, untreated with rabbit serum: without rabbit serum
Method: (3) Changes in the mucolytic activity of the test compounds treated with rabbit serum.
0.1ml of test compound (prepared in the same manner as (1) previously described) and 0.9ml of rabbit serum are put into a 50-ml beaker and the resulting mixture is shaken for 30 minutes at 37° C. 9ml of egg white is then added it and it is shaken for another 20 minutes. The viscosity of the resulting solution is determined by an Ostwald viscosimeter. Results shown in Table 2 are percent reduction in the relative viscosity of egg white at 1mM of the test compounds after treatment with or without rabbit serum.

in vivo = settings: mouse, ip
Method: 5-week-old male mice of ddy strain (body weight 24-28g) are used. […] Test solution
Test compound is added to physiological saline and the resulting solution is neutralized with sodium hydroxide to form a 5% solution (pH 7.0).
After administration of test solution, general symptoms and deaths which are caused during seven days are observed. The LD50 values are calculated according to the method of Litchfield and Wilcoxon.

SMILES | Percent reduction in relative viscosity, egg white ([1]; final concentration 0.1 mM) [%] | Percent reduction in relative viscosity, egg white ([1]; final concentration 10.0 mM) [%] | Percent reduction in relative viscosity, mucin (mucin) [%] | Reduction in the mucolytic activity (%) [2] [%] | Percent reduction in relative viscosity of egg white, treated with rabbit serum [2] [%] | Percent reduction in relative viscosity of egg white, untreated with rabbit serum [2] [%] | LD50 at 168 h (in vivo) [mg/kg]
CC(S)C(=O)N[C@@H](CS)C(=O)O (single isomer, unassigned) [N-(2-mercaptopropionyl)-L-cysteine-A] | 24.9 ± 1.5 | 56.4 ± 1.6 | 26.6 ± 1.5 | 27.2 | 30.0 ± 1.0 | 41.2 ± 2.1 | 2090
CC(S)C(=O)N[C@@H](CS)C(=O)O (single isomer, unassigned) [N-(2-mercaptopropionyl)-L-cysteine-B] | 24.9 ± 1.4 | 57.7 ± 1.0 | 20.1 ± 0.4 | 18.8 | 31.1 ± 3.8 | 38.1 ± 2.6 | –
CCOC(=O)[C@@H](N)CS.Cl [L-cysteine ethyl ester hydrochloride, L-Cysteine ethyl ester hydrochloride, reference compound] | 25.1 ± 3.5 | 59.9 ± 1.2 | 19.7 ± 1.5 | 63.3 | 15.4 ± 1.8 | 42.0 ± 1.1 | –
COC(=O)[C@@H](N)CS.Cl [L-cysteine methyl ester hydrochloride, reference compound] | 31.1 ± 5.6 | 60.6 ± 2.4 | 17.8 ± 0.2 | 84.6 | 7.0 ± 1.2 | 45.5 ± 2.0 | –
CC(C)(S)C(=O)N[C@@H](CS)C(=O)O [N-(2-mercaptoisobutyryl)-L-cysteine] | 23.1 ± 1.4 | 57.0 ± 1.0 | 22.5 ± 1.5 | 14.1 | 32.9 ± 1.0 | 38.3 ± 2.2 | –
O=C(CCS)N[C@@H](CS)C(=O)O [N-(3-mercaptopropionyl)-L-cysteine] | 22.8 ± 0.1 | 54.5 ± 4.7 | 28.1 ± 0.5 | -5.4 | 38.7 ± 2.6 | 36.7 ± 1.6 | –
CC(=O)N[C@@H](CS)C(=O)O [N-acetyl-L-cysteine, acetyl-L-cysteine, reference compound] | 11.0 ± 2.6 | 49.0 ± 1.8 | 4.8 ± 2.5 | 37.3 | 18.5 ± 0.8 | 29.5 ± 2.5 | –
O=C(CS)N[C@@H](CS)C(=O)O [N-mercaptoacetyl-L-cysteine] | 26.1 ± 4.1 | 60.0 ± 4.4 | 31.8 ± 1.5 | 9.8 | 35.9 ± 0.3 | 39.8 ± 3.0 | –
